Experiments:
[1] = biological target: T1, Interleukin-1 receptor-associated kinase 4 (Homo sapiens, UniProt Q9NWZ3); experiment: Inhibition of IRAK4
T1 sequence (Q9NWZ3 whole entry): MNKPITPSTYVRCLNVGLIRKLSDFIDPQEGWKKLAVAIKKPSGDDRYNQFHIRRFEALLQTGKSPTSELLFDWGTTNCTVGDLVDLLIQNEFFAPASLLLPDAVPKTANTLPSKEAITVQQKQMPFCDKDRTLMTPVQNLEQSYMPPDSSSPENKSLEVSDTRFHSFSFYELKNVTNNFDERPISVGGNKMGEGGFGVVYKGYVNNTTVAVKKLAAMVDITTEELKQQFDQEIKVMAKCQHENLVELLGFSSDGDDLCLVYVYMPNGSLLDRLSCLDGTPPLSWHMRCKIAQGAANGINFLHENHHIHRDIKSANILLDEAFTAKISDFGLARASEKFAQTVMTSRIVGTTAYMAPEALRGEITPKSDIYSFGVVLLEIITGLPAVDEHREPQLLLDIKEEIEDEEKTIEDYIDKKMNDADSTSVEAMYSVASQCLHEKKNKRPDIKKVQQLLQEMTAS

[2] = biological target: T2, Mitogen-activated protein kinase 8 (Homo sapiens, UniProt P45983); experiment: Inhibition of JNK1 at 10 uM
[3] = biological target: T3, Mitogen-activated protein kinase 9 (Homo sapiens, UniProt P45984); experiment: Inhibition of JNK2 at 10 uM
Target sequence in this assay (P45984 whole entry, looked up): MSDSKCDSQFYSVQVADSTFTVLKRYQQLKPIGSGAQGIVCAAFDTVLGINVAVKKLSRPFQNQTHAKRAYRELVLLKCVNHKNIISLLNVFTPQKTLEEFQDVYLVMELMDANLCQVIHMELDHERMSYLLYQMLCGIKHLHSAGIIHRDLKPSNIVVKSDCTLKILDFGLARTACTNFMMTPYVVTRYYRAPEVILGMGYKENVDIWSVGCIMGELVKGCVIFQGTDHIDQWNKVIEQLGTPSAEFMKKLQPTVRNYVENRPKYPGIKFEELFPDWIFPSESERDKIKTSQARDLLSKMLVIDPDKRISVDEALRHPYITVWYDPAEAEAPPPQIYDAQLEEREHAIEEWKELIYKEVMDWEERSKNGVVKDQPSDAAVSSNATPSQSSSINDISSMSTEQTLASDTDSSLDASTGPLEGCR

[4] = biological target: T2, Mitogen-activated protein kinase 8; experiment: Inhibition of JNK1
[5] = biological target: Mitogen-activated protein kinase 10 (Homo sapiens, UniProt P53779); experiment: Inhibition of JNK3
[6] = biological target: T4, Interleukin-1 receptor-associated kinase 4 (Homo sapiens) (UniProt Q9NWZ3); experiment: Inhibition of IRAK4 at 10 uM
T4 sequence (whole entry): T1 sequence (Q9NWZ3 whole entry)

[7] = biological target: T3, Mitogen-activated protein kinase 9; experiment: Inhibition of JNK2
Target sequence in this assay (P45984 whole entry): as the sequence (P45984 whole entry, looked up) above

T2 sequence (P45983 whole entry): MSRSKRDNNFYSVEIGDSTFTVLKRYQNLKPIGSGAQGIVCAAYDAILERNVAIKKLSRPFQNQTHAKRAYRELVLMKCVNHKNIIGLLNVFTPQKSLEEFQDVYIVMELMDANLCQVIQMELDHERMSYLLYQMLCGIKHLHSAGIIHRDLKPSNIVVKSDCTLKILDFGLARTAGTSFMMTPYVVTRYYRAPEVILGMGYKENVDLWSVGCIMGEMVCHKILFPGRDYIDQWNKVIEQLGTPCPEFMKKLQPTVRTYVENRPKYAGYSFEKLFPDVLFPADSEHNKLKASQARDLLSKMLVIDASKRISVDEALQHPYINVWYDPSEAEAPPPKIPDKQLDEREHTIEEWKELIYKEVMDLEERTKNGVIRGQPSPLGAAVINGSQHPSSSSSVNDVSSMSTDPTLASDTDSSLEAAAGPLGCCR
Sequence of Mitogen-activated protein kinase 10 (P53779 whole entry): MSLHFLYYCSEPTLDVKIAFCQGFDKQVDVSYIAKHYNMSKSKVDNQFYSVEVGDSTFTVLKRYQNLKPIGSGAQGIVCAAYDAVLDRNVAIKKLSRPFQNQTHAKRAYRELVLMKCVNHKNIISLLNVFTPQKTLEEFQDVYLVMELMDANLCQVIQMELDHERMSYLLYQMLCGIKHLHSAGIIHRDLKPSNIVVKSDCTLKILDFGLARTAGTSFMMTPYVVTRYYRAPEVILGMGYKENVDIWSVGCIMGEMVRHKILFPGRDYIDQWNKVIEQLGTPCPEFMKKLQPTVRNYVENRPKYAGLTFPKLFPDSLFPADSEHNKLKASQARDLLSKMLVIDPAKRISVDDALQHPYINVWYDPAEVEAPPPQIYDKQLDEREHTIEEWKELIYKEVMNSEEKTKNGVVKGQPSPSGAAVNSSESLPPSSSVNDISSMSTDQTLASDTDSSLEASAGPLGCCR

SMILES	IC50 [1] [nM]	inhibition [2] [%]	inhibition [3] [%]	IC50 [4] [nM]	IC50 [5] [nM]	inhibition [6] [%]	IC50 [7] [nM]
CN(c1nccc(-c2cnc3ccccn23)n1)C1CCNCC1	200	33	35	–	–	–	–
c1cc(NC2CCNCC2)nc(-c2cncc3ccccc23)c1	1930	5	0	–	–	–	–
c1ccn2c(-c3ccnc(NC4CCNCC4)n3)cnc2c1	216	–	59	3800	–	–	–
c1cc(NC2CCNCC2)nc(-n2cnc3ccccc32)c1	70	0	0	–	–	–	–
CNC(=O)CN1CCC(Nc2nccc(-c3cnc4ccccn34)n2)CC1	–	–	–	–	270	–	–
c1ccn2c(-c3ccnc(NC4CCNCC4)c3)cnc2c1	–	0	0	–	–	31	–

Results, then the compound that gave them:

IC50 [1] [nM]	inhibition [2] [%]	inhibition [3] [%]	IC50 [4] [nM]	IC50 [5] [nM]	inhibition [6] [%]	IC50 [7] [nM]	SMILES
1190	24	30	–	–	–	–	c1ccn2c(-c3ccnc(OC4CCNCC4)n3)cnc2c1
–	0	0	–	–	30	–	c1cc(NC2CCNCC2)nc(-n2ccc3ccccc32)c1
456	–	–	2080	–	–	1760	c1cc(NC2CCNCC2)nc(-c2n[nH]c3ccccc23)c1
35	39	15	–	–	–	–	c1cc(NC2CCNCC2)nc(-c2cnc3ccccn23)c1
400	–	–	–	3	–	–	CN(c1nccc(-c2cnc3ccccn23)n1)C1CCCCC1
